Where “and” joins values, the source holds several entries; their conditions need not be identical. Equal values may be shown once. Entries after “also recorded” stand apart in the source; their conditions may differ. Read-outs that look alike come from different tables or passages of the source.
Columns and labels:
primary h-CM cells = assay type: cell-based, human
[1] = test system: CHO-B2 cells (human cloned B2 receptor); assay type: cell-based, Chinese hamster ovary cells
B2 subtype = test system: B2 subtype; set-up: method as in PMID 1313585; details: ref [1]; cited from earlier work
CHO-B2 cells [2] = assay type: cell-based, Chinese hamster ovary cells, human cloned B2 receptor; details: 1 h at 37 °C; enzyme immunoassay; mean ± SEM, 3 to 6 experiments; read-out: PGE2 production in CHO-B2 cells (EC50)
pro-MMPs, h-CM cells = test: pro-MMP release from h-CM cells (several pro-MMPs stated together); assay type: cell-based, human; details: BK 0.1–1 µM at 24 h
Method: Measurement of extracellular signal-regulated kinase-1/2 phosphorylation and pro-matrix metalloproteinase production
The release of pro-MMP-1/2/3 in the extracellular medium of h-CM cells exposed to kinin’s, for 24 h at 37 °C [29, 30] was studied next. Thus, h-CM cells isolated from multiple human donor eyes were cultured as described above and then serum-starved for 24 h prior to the addition of any test compound. Cells were incubated with the vehicle or test compound for 24 hours at 37 °C after which the medium was collected and concentrated ten-fold using Centricon concentrators (Millipore Corp., Bellireca, MA). Equal volumes of this concentrate were loaded on 10% SDS-polyacrylamide gels (SDS-PAGE) and the proteins separated and transferred to nitrocellulose membranes. The membranes were then blocked with 5% non-fat dry milk (Bio-Rad Laboratories, Hercules, CA) followed by incubation with antibodies to pro-MMP-1, pro-MMP-2, or pro-MMP-3 for 12 hours at 4 °C with gentle shaking. After washing, these membranes were incubated with appropriate secondary antibodies (HRP-conjugated; dilution 1:3000) for 1 hour at 20 °C. […] For chemiluminescent detection, the membranes were treated with enhanced chemiluminescent reagent (Amersham Pharmacia, Piscataway, NJ) and the signal was quantified using a Bio-Rad Versadoc imaging system (Bio-Rad Laboratories, Hercules, CA).

h-CM cells [3] = test: Nitric oxide production in h-CM cells; assay type: cell-based, human; details: BK 0.1 and 1 µM; data not shown
Excerpt: Measurement of nitric oxide production
In certain cell types, BK elevates intracellular levels of nitric oxide (NO), which in turn causes the generation of cGMP via the soluble guanylate cyclase in the cell cytosol. In the present studies, we determined whether the B2 receptors in h-CM cells were coupled to NO production using a specific kit (Promega Corp., Madison, WI) and according to the manufacturer’s instructions.

CHO-B2 cells [4] = assay type: cell-based, Chinese hamster ovary cells, human cloned B2 receptor; details: 1 h at 37 °C; enzyme immunoassay; mean ± SEM, 3 to 6 experiments; read-out: PGF2α production in CHO-B2 cells (EC50)
rabbit eyes = test: IOP after intravitreal injection in Dutch-Belt rabbits; assay type: in vivo, pigmented Dutch-Belt rabbit; details: for IOP reduction, rabbit: 50 µg intravitreal, n=7–10
Method: Intraocular pressure measurements
To extend our in vitro observations of the high density of B2-receptor protein in human and cynomolgus monkey ciliary muscle and non-pigmented ciliary epithelium, we studied the effects of topically administered BK (100 µg total dose in a sterile vehicle) on IOP in normotensive and TM-ablated hypertensive eyes of these animals. […] However, since we could not subject the monkeys to additional studies involving BK delivery to the eye interior, it was decided that intravitreal (ivt) injection of BK into pigmented Dutch-Belt rabbits would be worth pursuing. Thus, after light corneal anesthesia with 0.1% proparacaine, basal IOPs were determined in up to 10 Dutch-Belt rabbits using an Alcon Pneumotonometer (Alcon Laboratories Inc., Fort Worth, TX). After this time, 50 µg of BK (B2 agonist) or Des-Arg^9-BK (B1 agonist) in 20 µl of sterile basal salt solution (BSS plus), or just BSS plus vehicle, was injected ivt into one eye of each rabbit and the IOP determined at various times thereafter. Authors confirm adherence to the ARVO Statement for Animals in Ophthalmic and Vision Research, with all animal studies conducted according the guidelines for Animal Care and Use at Alcon Research Ltd.
Figure 8 Time-course of changes in rabbit intraocular pressure (IOP) with different kinin peptide agonists. Three groups of Dutch-Belt rabbits (n=7–10/group) were injected ivt in one eye with either vehicle or 50 µg of BK or 50 µg of Des-Arg^9-BK dissolved in the vehicle and the IOP monitored over time. Data are mean±SEM.

B1 subtype = test system: B1 subtype; set-up: method as in PMID 1313585; details: ref [1]; cited from earlier work
CHO-B2 cells [5] = details: read-out: PGD2 production in CHO-B2 cells (EC50), 1 h at 37 °C, enzyme immunoassay
Method: Measurement of prostaglandins in human ciliary muscle and Chinese hamster ovary cells expressing B2 receptors
This involved stimulating h-CM cells and CHO-B2 cells with various concentrations of test peptides and measuring the release of various PGs in the extracellular medium. The concentration-dependent effects of these peptides on total PGs, and specifically PGE2, PGF2α, and PGD2 release, were studied. Cells were grown as a monolayer in a 24-well plate (precoated with fibronectin) to confluence and subsequently serum-starved overnight before the experiment. On the day of the experiment, just before the drug was added, the wells were aspirated completely, and 990 µl basal medium and 10 µl 100× series of concentrations of the different peptide agonists were added to achieve the desired final concentrations of each compound (e.g., 0.1 nM to 10 µM). […] At the end of the incubation period, the cellular supernatants were collected and stored at −80 °C or used immediately to determine the PG content. Cell supernatants were tested for total PG levels and sub-species of PGs (PGE2, PGF2α, and PGD2) using specific competitive enzyme immunoassays (Cayman Chemical Co., Ann Arbor, MI) as directed in the manufacturer’s recommended protocols using the supplied standards and reagents. The limits of detection for various PGs were as follows: total PGs=29 pg/ml; PGE2=15 pg/ml; PGF2α=9 pg/ml; PGD2=200 pg/ml.

h-CM cells [6] = assay type: cell-based, human; details: 1 h at 37 °C; enzyme immunoassay; mean ± SEM, 3 to 6 experiments; read-out: PGF2α production in h-CM cells (EC50)

H-RPPGFSPFR-OH [BK]
EC50 (primary h-CM cells; 1 h at 37 °C, enzyme immunoassay, mean ± SEM, 3 to 6 experiments, read-out: Total PGs production in h-CM cells (EC50)): 8.6 ± 2.4 nM | BK-induced total PGs production/secretion, h-CM cells (primary h-CM cells; BK 100 nM (0.1 µM) to 10 µM, n=8): 393.3 ± 24.2 pg/mL and 393.3 pg/mL | Total PG secretion above basal levels (primary h-CM cells; BK 1 µM, Figure 6A, single experiment): substantially increased the PGs secreted above the basal levels | EC50 ([1]; 1 h at 37 °C, enzyme immunoassay, mean ± SEM, 3 to 6 experiments, read-out: Total PGs production in CHO-B2 cells (EC50)): 0.0263 ± 0.0066 nM | BK-induced total PGs production/secretion, CHO-B2 cells ([1]; n=6): 913.6 ± 47.6 pg/mL and 913.6 pg/mL | Elevation in extracellular PGs, CHO-B2 cells ([1]; relative to basal levels): 4.9 fold | Affinity for B2 subtype (B2 subtype): high affinity | EC50 (CHO-B2 cells [2]): 0.0328 ± 0.00903 nM | Increase in promatrix metalloproteinases-1–3 release (pro-MMPs, h-CM cells): 1.4–3.1 fold | Effect on NO levels (h-CM cells [3]): failed to have any effect on NO levels; also recorded: failed to do so in h-CM cells | EC50 (CHO-B2 cells [4]): 0.0321 ± 0.0122 nM | IOP reduction, rabbit (rabbit eyes; 5 h post-injection): 22.9±7.3% | IOP reduction, rabbit (rabbit eyes; 8 h post-injection (maximal)): 37.0±5.6% | Effect on rabbit IOP (rabbit eyes; BK 50 µg intravitreal, 5–8 h post injection): time-dependent reduction in IOP; also recorded: robust lowering of the IOP | Affinity for B1 subtype (B1 subtype): low affinity | EC50 (CHO-B2 cells [5]; first of two values in cell): 0.0113 nM | EC50 (CHO-B2 cells [5]; second of two values in cell): 0.181 nM | EC50 (h-CM cells [6]): 15.9 ± 9.2 nM

Source: PMC3693772, “Protein expression, biochemical pharmacology of signal transduction, and relation to intraocular pressure modulation by bradykinin B2 receptors in ciliary muscle” (Molecular Vision, 2013)
